From ChEMBL document CHEMBL1201862, “PubChem BioAssay data set” (2004)
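All cell lines were grown in 96-well plates and treated with compound for 48 hours. GI50: concentration for 50% inhibition of growth.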 Activity calls are given as the source filed them. No stated cut-off is given here; in the data, active = GI50 up to about 1.1 µM and inactive = higher.

Legend:
Experiment in all cases: NCI-60 cell line screen, 48 h
[1] = system: 786-0
[2] = system: A498
[3] = system: A549
[4] = system: ACHN
[5] = system: BT-549
[6] = system: CAKI-1
[7] = system: CCRF-CEM
[8] = system: COLO 205
[9] = system: DU-145
[10] = system: EKVX
[11] = system: HCT-116
[12] = system: HCT-15
[13] = system: HL-60
[14] = system: HOP-92
[15] = system: HT-29
[16] = system: IGROV-1
[17] = system: K562
[18] = system: KM12
[19] = system: LOX IMVI
[20] = system: M14
[21] = system: MDA-MB-231
[22] = system: MDA-MB-435
[23] = system: MDA-N
[24] = system: MOLT-4
[25] = system: Malme-3M
[26] = system: NCI-H226
[27] = system: NCI-H23
[28] = system: NCI-H460
[29] = system: NCI-H522
[30] = system: NCI/ADR-RES
[31] = system: OVCAR-3
[32] = system: OVCAR-4
[33] = system: OVCAR-5
[34] = system: OVCAR-8
[35] = system: PC-3
[36] = system: RPMI-8226
[37] = system: RXF 393
[38] = system: SF-268
[39] = system: SF-295
[40] = system: SF-539
[41] = system: SK-MEL-28
[42] = system: SK-MEL-2
[43] = system: SK-MEL-5
[44] = system: SK-OV-3
[45] = system: SN12C
[46] = system: SNB-19
[47] = system: SNB-75
[48] = system: SW-620
[49] = system: T47D
[50] = system: TK-10
[51] = system: U-251
[52] = system: UACC-257
[53] = system: UACC-62
[54] = system: UO-31

`C=CCN1CCC(O)(c2cc(C(=O)OCC)[nH]c2-c2cc(C)no2)C1` (centres undefined) was tested, and the GI50 [1] was > 100 µM (inactive), the GI50 [2] was > 100 µM (inactive) and the GI50 [3] was > 100 µM (inactive). For the same molecule, the GI50 [4] was > 100 µM (inactive), the GI50 [5] was > 100 µM (inactive) and the GI50 [6] was > 100 µM (inactive). The GI50 [7] was > 100 µM (inactive), the GI50 [8] was > 100 µM (inactive) and the GI50 [9] was > 100 µM (inactive). For the same molecule, the GI50 [10] was > 100 µM (inactive), the GI50 [11] was > 100 µM (inactive) and the GI50 [12] was > 100 µM. For the same molecule, the GI50 [13] was > 100 µM (inactive), the GI50 [14] was > 100 µM (inactive) and the GI50 [15] was > 100 µM (inactive). For the same molecule, the GI50 [16] was > 100 µM (inactive), the GI50 [17] was > 100 µM (inactive) and the GI50 [18] was > 100 µM (inactive). The GI50 [19] was > 100 µM (inactive), the GI50 [20] was > 100 µM (inactive) and the GI50 [21] was > 100 µM (inactive). For the same molecule, the GI50 [22] was > 100 µM (inactive), the GI50 [23] was > 100 µM (inactive) and the GI50 [24] was > 100 µM (inactive). For the same molecule, the GI50 [25] was > 100 µM (inactive), the GI50 [26] was > 100 µM (inactive) and the GI50 [27] was > 100 µM (inactive). The GI50 [28] was > 100 µM (inactive), the GI50 [29] was > 100 µM (inactive) and the GI50 [30] was > 100 µM (inactive). For the same molecule, the GI50 [31] was > 100 µM (inactive), the GI50 [32] was > 100 µM (inactive) and the GI50 [33] was > 100 µM (inactive). The GI50 [34] was > 100 µM (inactive), the GI50 [35] was > 100 µM (inactive) and the GI50 [36] was > 100 µM (inactive). The GI50 [37] was > 100 µM (inactive), the GI50 [38] was > 100 µM (inactive) and the GI50 [39] was > 100 µM (inactive). The GI50 [40] was > 100 µM (inactive), the GI50 [41] was > 100 µM (inactive) and the GI50 [42] was > 100 µM (inactive). For the same molecule, the GI50 [43] was > 100 µM (inactive), the GI50 [44] was > 100 µM (inactive) and the GI50 [45] was > 100 µM (inactive). The GI50 [46] was > 100 µM (inactive), the GI50 [47] was > 100 µM (inactive) and the GI50 [48] was > 100 µM (inactive). The GI50 [49] was > 100 µM (inactive), the GI50 [50] was > 100 µM (inactive) and the GI50 [51] was > 100 µM (inactive). For the same molecule, the GI50 [52] was > 100 µM (inactive), the GI50 [53] was > 100 µM (inactive) and the GI50 [54] was > 100 µM (inactive).
